Reference: US12012402B2, “Pyrido[2,3-d]pyrimidin-7-ones and related compounds as inhibitors of protein kinases” (UNIVERSITY OF HOUSTON SYSTEM, priority 2017, dated 2024)
pEC50, pIC50: −log10 of the molar value.

Experiments:
[1] = molecular target: Recombinant RIPK2 protein (Homo sapiens, UniProt O43353); assay: Receptor Interacting Protein Kinase 2 (RIPK2) enzyme assay (ADP-Glo); type: biochemical; details: 2 h at room temperature
Source text: Receptor Interacting Protein Kinase 2 (RIPK2) Enzyme Assay
Inhibition, %=(1−(test signal/maximal signal))*100.

human ALK2 = molecular target: T1, human ALK2 (Homo sapiens, UniProt Q04771); assay: Activin-Like Kinase 2 (ALK2) enzyme assay (33P-casein); type: biochemical; details: casein 1 mg/mL, 30 min; NI = no inhibition observed
T1 sequence (Q04771 21-509): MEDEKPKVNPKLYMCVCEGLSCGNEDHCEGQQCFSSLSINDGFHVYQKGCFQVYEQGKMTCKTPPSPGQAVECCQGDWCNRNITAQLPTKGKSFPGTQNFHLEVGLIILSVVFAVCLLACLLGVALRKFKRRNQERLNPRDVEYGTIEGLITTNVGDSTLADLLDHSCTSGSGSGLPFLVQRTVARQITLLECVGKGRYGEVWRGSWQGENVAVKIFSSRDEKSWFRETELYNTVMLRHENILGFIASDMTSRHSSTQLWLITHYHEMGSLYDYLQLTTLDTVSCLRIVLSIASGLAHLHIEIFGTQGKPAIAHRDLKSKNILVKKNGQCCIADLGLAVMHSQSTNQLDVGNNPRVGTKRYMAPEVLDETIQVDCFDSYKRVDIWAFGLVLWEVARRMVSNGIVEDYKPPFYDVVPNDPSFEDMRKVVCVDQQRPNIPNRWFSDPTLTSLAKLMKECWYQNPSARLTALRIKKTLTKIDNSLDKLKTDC
Method: Activin-Like Kinase 2 (ALK2) Enzyme Assay
Enzyme inhibitory activity was evaluated in a standard kinase enzyme assay by incubating human ALK2 with the protein substrate casein (1 mg/mL) and γ-^33ATP (10 µM) in the presence of various concentrations of test compounds (10 nM-100 μM). After 30 min the amount of ^33P-casein was determined.

NOD2 cellular signaling = assay: NOD2 signaling assay in HEK-Blue cells (NFkB-SEAP reporter, L18-MDP stimulated); type: cell-based; details: HEK-Blue cells expressing human NOD2, L18-MDP stimulation, 8 h; NI = no inhibition observed; read-out: EC50 HEK Blue RIPK2
Method: HEK-Blue cells expressing human NOD2 and NFkB-SAEP reporter (Invivogen) are seeded into 96 well clear plates at 7.5×10^3 cells per well in 100 μL of DMEM media supplemented with 10% FBS and 1% antibiotic-antimycotic mix. Cells are allowed to attach for 48 h in 5% CO2 tissue culture incubator at 37° C. On the morning of the experiment, media in the wells is replaced with 100 μL of HEK-Blue detection media (Invivogen). Cells are treated with the inhibitors, diluted in DMSO (0.5 μL per well) for 15 min in 5% CO2 tissue culture incubator at 37° C. After that, cells are stimulated by the addition of 1 ng/well L18-MDP (Invivogen). Cells are incubated in 5% CO2 tissue culture incubator at 37° C. for 8 h and absorbance, corresponding to the SEAP in the media, is determined in Wallac3V plate reader (Perkin Elmer). Inhibition, %=(1−((sample signal-unstimulated and DMSO treated cells)/(L18-MDP stimulated and DMSO treated cells—unstimulated and DMSO treated cells)))*100.

Chain of Recombinant RIPK2 protein (O43353 whole entry): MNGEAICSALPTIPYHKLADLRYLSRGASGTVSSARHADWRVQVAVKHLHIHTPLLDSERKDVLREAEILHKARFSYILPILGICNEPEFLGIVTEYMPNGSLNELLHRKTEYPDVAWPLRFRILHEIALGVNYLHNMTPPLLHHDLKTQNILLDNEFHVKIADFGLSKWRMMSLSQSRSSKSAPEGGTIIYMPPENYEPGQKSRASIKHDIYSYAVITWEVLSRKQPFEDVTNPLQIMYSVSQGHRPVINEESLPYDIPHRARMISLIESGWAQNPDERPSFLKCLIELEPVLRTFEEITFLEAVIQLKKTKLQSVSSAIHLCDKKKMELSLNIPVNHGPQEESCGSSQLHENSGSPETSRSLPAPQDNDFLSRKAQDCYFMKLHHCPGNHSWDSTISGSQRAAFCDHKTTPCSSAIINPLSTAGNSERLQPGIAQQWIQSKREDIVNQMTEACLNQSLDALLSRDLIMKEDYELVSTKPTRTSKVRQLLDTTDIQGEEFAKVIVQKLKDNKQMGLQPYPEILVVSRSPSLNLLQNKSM

| pIC50 [1] | pIC50 (human ALK2) | pEC50 (NOD2 cellular signaling) | Compound |
| --- | --- | --- | --- |
| 7.52 | < 4.00 | 6.45 | CS(=O)(=O)c1cccc(Nc2ncc3cc(-c4ccccc4Cl)ccc3n2)c1 [UH15PN2, 6-(2-chlorophenyl)-N-(3-(methylsulfonyl)phenyl)quinazolin-2-amine] |
| 7.53 | 5.07 | – | CS(=O)(=O)c1cccc(Nc2ncc3cc(-c4ccc(O)cc4)ccc3n2)c1 [UH15PN3, 4-(2-((3-(methylsulfonyl)phenyl)amino)quinazolin-6-yl)phenol] |
| 7.38 | – | 5.71 | CS(=O)(=O)c1cccc(Nc2ncc3cc(-c4ccccn4)ccc3n2)c1 [UH15PN5, N-(3-(methylsulfonyl)phenyl)-6-(pyridin-2-yl)quinazolin-2-amine] |
| 7.60 | – | 6.35 | CS(=O)(=O)c1cccc(Nc2ncc3cc(-c4cccnc4)ccc3n2)c1 [UH15PN6, N-(3-(methylsulfonyl)phenyl)-6-(pyridin-3-yl)quinazolin-2-amine] |
| 7.56 | < 4.00 | 6.39 | Cn1c(=O)c(-c2ccccc2Cl)cc2cnc(Nc3cccc(S(C)(=O)=O)c3)cc21 [UH15_32, 3-(2-chlorophenyl)-1-methyl-7-((3-(methylsulfonyl)phenyl)amino)-1,6-naphthyridin-2(1H)-one] |

Second part, the molecule before the results:

| Compound | pIC50 [1] | pIC50 (human ALK2) | pEC50 (NOD2 cellular signaling) |
| --- | --- | --- | --- |
| CCN(CC)CCOc1ccc(Nc2ncc3cc(-c4ccccc4Cl)ccc3n2)cc1 [UH15PN1, 6-(2-chlorophenyl)-N-(4-(2-(diethylamino)ethoxy)phenyl)quinazolin-2-amine] | 7.66 | 6.49 | 6.77 |
| Cn1c(=O)c(-c2ccccc2Cl)cc2cnc(Nc3cccc(N4CCNCC4)c3)cc21 [UH15_25, 3-(2-chlorophenyl)-1-methyl-7-((3-(piperazin-1-yl)phenyl)amino)-1,6-naphthyridin-2(1H)-one] | – | – | 7.26 |
| Cn1c(=O)c(-c2ccccc2Cl)cc2cnc(Nc3cccc(N4CCNCC4)c3)nc21 [UH15_33, 6-(2-chlorophenyl)-8-methyl-2-((3-(piperazin-1-yl)phenyl)amino)pyrido[2,3-d]pyrimidin-7(8H)-one] | 7.67 | 6.65 | 9.70 |
| Cn1c(=O)c(-c2ccccc2Cl)cc2cnc(Nc3cccnc3)nc21 [UH15_34, 6-(2-chlorophenyl)-8-methyl-2-(pyridin-3-ylamino)pyrido[2,3-d]pyrimidin-7(8H)-one] | 7.45 | 5.96 | 7.47 |
| Cn1c(=O)c(-c2ccccc2Cl)cc2cnc(Nc3ccccn3)nc21 [UH15_35, 6-(2-chlorophenyl)-8-methyl-2-(pyridin-2-ylamino)pyrido[2,3-d]pyrimidin-7(8H)-one] | 7.06 | – | 6.02 |
